Data taken from patent EP1070068B2, “GRANULATIMIDE DERIVATIVES FOR USE IN CANCER TREATMENT” (THE UNIVERSITY OF BRITISH COLUMBIA, priority 1998, dated 1999).
Like-named read-outs stand apart in the source and are kept apart here.

Columns and labels:
[1] = biological target: CDK1 (Homo sapiens, UniProt P06493); test: Protein kinase inhibition assay (γ-32P ATP); type: biochemical; conditions: room temperature, 15 minutes
Experimental: (§1) 100% DMSO was used as a negative control.
(§2) Kinase reactions are performed at room temperature. The reaction mixture contains diluted test compound, the protein kinase, substrate and γ-^32P ATP. The mixture is incubated for 15 minutes, and the reaction mix spotted, and counted.

[2] = biological target: T1, ILK1 (Homo sapiens, UniProt Q13418); test: Protein kinase inhibition assay (γ-32P ATP, peptide substrate); type: biochemical; conditions: room temperature, 15 minutes
T1 sequence (Q13418 1-452): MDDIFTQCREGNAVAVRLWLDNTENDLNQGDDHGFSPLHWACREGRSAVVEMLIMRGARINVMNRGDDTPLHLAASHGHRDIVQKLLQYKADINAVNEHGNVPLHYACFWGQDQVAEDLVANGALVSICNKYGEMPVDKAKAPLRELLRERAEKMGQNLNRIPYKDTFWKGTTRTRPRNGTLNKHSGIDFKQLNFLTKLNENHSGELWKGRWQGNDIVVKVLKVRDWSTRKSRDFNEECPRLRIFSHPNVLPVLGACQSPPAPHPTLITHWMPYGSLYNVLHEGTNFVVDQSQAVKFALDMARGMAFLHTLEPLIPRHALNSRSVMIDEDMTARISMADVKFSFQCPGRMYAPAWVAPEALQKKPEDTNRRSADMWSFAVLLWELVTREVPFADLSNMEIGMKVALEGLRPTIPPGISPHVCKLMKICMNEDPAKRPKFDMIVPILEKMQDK
Experimental: (§3) The GSK3β peptide substrate used was […] (PO4H2)EDEE-amide. The ILK1 substrate is […]-amide.
as §1, §2

[3] = biological target: GSK3b (Homo sapiens, UniProt P49841); test: as above; type: biochemical; conditions: room temperature, 15 minutes
Chain of GSK3b (P49841 whole entry, species assumed): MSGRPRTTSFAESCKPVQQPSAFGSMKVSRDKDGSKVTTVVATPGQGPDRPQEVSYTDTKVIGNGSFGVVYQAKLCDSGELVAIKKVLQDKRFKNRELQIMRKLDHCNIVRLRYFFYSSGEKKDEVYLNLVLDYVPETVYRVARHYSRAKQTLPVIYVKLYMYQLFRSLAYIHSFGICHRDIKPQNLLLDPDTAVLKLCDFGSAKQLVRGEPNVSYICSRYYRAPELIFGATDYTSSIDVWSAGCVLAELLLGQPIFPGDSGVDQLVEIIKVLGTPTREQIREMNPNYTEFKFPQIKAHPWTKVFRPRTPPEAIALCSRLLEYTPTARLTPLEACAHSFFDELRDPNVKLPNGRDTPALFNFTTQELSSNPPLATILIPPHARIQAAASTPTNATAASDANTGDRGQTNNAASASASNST
Experimental: as §3, §1, §2

[4] = test system: MCF-7 mp53 cells; test: G2 checkpoint inhibition assay (TG-3 ELISA of mitotic cells after γ-irradiation, with nocodazole); type: cell-based; conditions: for IC50: Homo sapiens
Experimental: G2 Checkpoint Inhibitor Assay: The G2 checkpoint inhibitor assay described herein involves treating cells, e. g. cells associated with a hyperproliferative disorder, including cancer cells, with a DNA damaging agent under conditions whereby arrest of the cells at G2 will be induced. A sample to be tested for G2 checkpoint inhibition activity and an agent which arrests cells in mitosis are applied to the cells, following which it is determined whether the G2 checkpoint is overcome and the cells enter mitosis. Release of the cells from arrest at G2 or prevention of arrest at G2, such that the cells proceed to mitosis, is the indicator of G2 checkpoint inhibition activity.
MCF-7 mp53 cells (mutant for p53) were cultured as monolayers in DMEM supplemented with 10% fetal bovine serum, 2 mM L-glutamine, 50 units/ml penicillin, 50 µg/ml streptomycin, 1 mM sodium pyruvate, MEM non-essential amino acids, 1 µg/ml bovine insulin, 1 µg/ml hydrocortisone, 1 ng/ml human epidermal growth factor, and 1 ng/ml β-estradiol at 37°C in humidified 5% CO2. The cells were seeded at 10,000 cells per well of 96-well polystyrene tissue culture plates (Falcon) in 100 µl medium. The cells were allowed to grow for 24 hours and then were irradiated with 6.5 Gy using a ^60Co source (Gammacell 200™, Atomic Energy Commission of Canada) delivering γ-rays at a dose rate of 1.4 Gy/min.
Extracts from marine organisms at about 10µg/ml (from 1000-fold stocks in DMSO) and 100 ng/ml nocodazole (Sigma, from a 1000-fold stock in DMSO) were added 16 hours after irradiation and the cells were incubated for a further 8 hours.
After drug treatment, the cell culture medium was removed and the cells were lysed by adding 100 µl of ice-cold lysis buffer (1 mM EGTA pH 7.4, 0.2 mM PMSF) and pipeting up-and-down 10 times. The cell lysates were transferred to 96-well PolySorp™ plates (Nunc) and dried completely by blowing warm air at about 37°C with a hair dryer positioned about 3 feet above plates. […] This was removed and replaced with 100 µl antibody buffer containing 0.1-0.15 µg/ml TG-3 monoclonal antibody and horseradish peroxidase-labelled goat anti-mouse IgM (Southern Biotechnology Associates) at a dilution of 1/500.
After overnight incubation at 4°C, the antibody solution was removed and the wells were rinsed 3 times with 200 µl 10 mM Tris HCl pH 7.4, 0.02% Tween 20™.

[5] = test system: MCF-7 mp53 cells; test: as above; type: cell-based; conditions: concentration of 0.1-30 µM
[6] = in vitro; conditions: human
[7] = test system: MCF-7 cells; test: Cell survival, soluble tetrazolium salt assay with γ-irradiation, p53+ cells; type: cell-based; conditions: MCF-7 cells (Figure 1C)
[8] = test system: MCF-7 mp53 cells
[9] = Solubility in organic solvents; type: physicochemical
[10] = test system: p53-MCF-7 cells; conditions: cited from earlier work
[11] = test system: p53- A549 human lung adenocarcinoma cells; conditions: cited from earlier work
[12] = MCF7, light or radiation study, MCF-7 mp53 cells irradiated with 6.5 Gy, read-out: half-maximal G2 checkpoint inhibition (IC50)
[13] = MCF7, Table 2, read-out: IC50 G2 checkpoint

Chain of CDK1 (P06493 whole entry, species assumed): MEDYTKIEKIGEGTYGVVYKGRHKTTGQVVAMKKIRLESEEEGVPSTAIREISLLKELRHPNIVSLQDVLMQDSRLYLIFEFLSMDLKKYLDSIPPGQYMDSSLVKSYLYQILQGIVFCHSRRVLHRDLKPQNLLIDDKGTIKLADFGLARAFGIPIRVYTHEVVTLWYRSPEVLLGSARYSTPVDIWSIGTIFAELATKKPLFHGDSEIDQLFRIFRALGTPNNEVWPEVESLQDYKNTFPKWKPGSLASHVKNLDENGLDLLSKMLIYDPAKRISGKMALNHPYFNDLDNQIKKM
Chain of CDK1 (P14635 whole entry partner, species assumed): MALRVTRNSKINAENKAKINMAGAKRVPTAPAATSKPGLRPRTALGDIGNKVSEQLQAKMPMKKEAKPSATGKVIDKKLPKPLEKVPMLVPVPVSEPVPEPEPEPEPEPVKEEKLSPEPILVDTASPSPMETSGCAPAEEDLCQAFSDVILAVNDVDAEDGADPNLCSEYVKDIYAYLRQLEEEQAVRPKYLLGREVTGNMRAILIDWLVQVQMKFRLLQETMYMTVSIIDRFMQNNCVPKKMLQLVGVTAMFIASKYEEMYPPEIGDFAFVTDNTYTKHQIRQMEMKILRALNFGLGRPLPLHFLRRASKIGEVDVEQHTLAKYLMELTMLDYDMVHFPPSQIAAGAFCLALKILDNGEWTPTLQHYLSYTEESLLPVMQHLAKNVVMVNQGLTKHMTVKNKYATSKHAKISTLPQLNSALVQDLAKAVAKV

Row | IC50 [1] | IC50 [2] | IC50 [3] | IC50 [4, 12] | IC50 [4, 13] | Compound | also measured
1 | > 50 µM | > 50 µM | 25 µM | > 100 µM | > 100 µM | O=C1NC(=O)c2c1c1c3ccccc3[nH]c1c1nccn21 [compound 40] | –
2 | 2 µM | > 50 µM | 2 µM | – | 1.3 µM | O=C1NC(=O)c2c1c1[nH]cnc1c1[nH]c3ccccc3c21 [Granulatimide] | IC50 ([4]; MCF7, Figure 2, read-out: G2 checkpoint inhibitor IC50): 1.3 µM; solubility ([9]; DMF or DMSO): soluble; solubility ([9]; most common organic solvents including ethanol and methanol): very insoluble
3 | 0.5 µM | 15 µM | 0.1 µM | 1 µM | 1 µM | O=C1NC(=O)c2c1c1c3ccccc3[nH]c1c1cncn21 [compound 50] | –
4 | 17 µM | > 50 µM | 5 µM | 2 µM | 6 µM | O=C1NC(=O)c2c1c1c3ccccc3[nH]c1n1ccnc21 [compound 60] | –

More lines, now with the values behind:

Row | Compound | IC50 [1] | IC50 [2] | IC50 [3] | IC50 [4, 12] | IC50 [4, 13] | also measured
5 | O=C1NC(=O)C(c2c[nH]c3ccccc23)=C1c1cnc[nH]1 [Didemnimide A] | – | – | – | – | – | G2 checkpoint inhibition activity [5]: no activity
6 | Cn1c(=O)c2c(ncn2C)n(C)c1=O [caffeine, reference compound] | – | – | – | – | – | IC50 ([4]; MCF7, comparison compound, read-out: IC50 for G2 checkpoint inhibition): 1000 µM; absorbance readings at 405 nm ([4]; positive control, 2 mM): about 1.0
7 | O=C1NC(=O)c2c1c1c3ccccc3[nH]c1n1cncc21 [Isogranulatimide] | – | > 50 µM | 0.5 µM | 1.8 ± 0.2 µM | 1.8 µM | IC50 at 16 h [6]: 40 ± 4 µM; synergy with irradiation in killing p53+ cells [7]: does not kill p53+ cells synergistically; reduction of the IC50 for cytotoxicity when cells were irradiated [8]: 5 fold; synergy with γ-irradiation in killing p53- cells ([8]; 2, 4 or 6 Gy, 16 hours for isogranulatimide): acted synergistically
8 | CC(=O)CCCCn1c(=O)c2c(ncn2C)n(C)c1=O [Pentoxifylline] | – | – | – | – | – | enhancement of cisplatin induced killing [10]: 30 fold; enhancement of radiation induced killing [11]: 5 fold
